Where a name gives a salt, the structure may show the parent alone.
Test system: KRas G12D-mediated phosphorylation of ERK
Experiment: Inhibition of KRas G12D-mediated phosphorylation of ERK in AGS cells
Format: cell-based
Conditions: Homo sapiens; AGS cells expressing G12D, 3 hours, phospho-ERK normalized to GAPDH
In short: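 Fixed, methanol-permeabilized; phospho-ERK (Thr202/Tyr204) by in-cell immunofluorescence normalized to GAPDH. Percent of DMSO control, IC50 by 4-parameter fit.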

Compound	IC50 [µM]
CN1C[C@H](C(F)(F)F)C[C@H]1COc1nc(N2C[C@H]3CC[C@@H](C2)N3)c2cnc(-c3cc(O)cc4ccccc34)c(F)c2n1 [Example 28, 4-(4-((1R,5S)-3,8-diazabicyclo[3.2.1]octan-3-yl)-8-fluoro-2-(((2S,4R)-1-methyl-4-(trifluoromethyl)pyrrolidin-2-yl)methoxy)pyrido[4,3-d]pyrimidin-7-yl)naphthalen-2-ol]	11.7
Oc1cc(-c2ncc3c(N4C[C@H]5CC[C@@H](C4)N5)nc(OCC4CCCC4)nc3c2F)c2ccccc2c1 [Example 73, 4-(4-((1R,5S)-3,8-diazabicyclo[3.2.1]octan-3-yl)-2-(cyclopentylmethoxy)-8-fluoropyrido[4,3-d]pyrimidin-7-yl)naphthalen-2-ol]	> 5.56
Fc1c(-c2cccc3c2CC2CC32)ncc2c(N3CC4CCC(C3)N4)nc(OC[C@@]34CCCN3C[C@H](F)C4)nc12 (stereo partly drawn) [Example 438, 4-(3,8-diazabicyclo[3.2.1]octan-3-yl)-8-fluoro-2-(((2R,7aS)-2-fluorotetrahydro-1H-pyrrolizin-7a(5H)-yl)methoxy)-7-(1,1a,6,6a-tetrahydrocyclopropa[a]inden-5-yl)pyrido[4,3-d]pyrimidine]	1.63
Fc1c(-c2cccc(C(F)(F)F)c2C(F)(F)F)ncc2c(N3C[C@H]4CC[C@@H](C3)N4)nc(OCC34CCCN3CCC4)nc12 [Example 197, 4-((1R,5S)-3,8-diazabicyclo[3.2.1]octan-3-yl)-7-(2,3-bis(trifluoromethyl)phenyl)-8-fluoro-2-((tetrahydro-1H-pyrrolizin-7a(5H)-yl)methoxy)pyrido[4,3-d]pyrimidine]	> 16.7
OCC#Cc1cccc2cccc(-c3ncc4c(N5C[C@H]6CC[C@@H](C5)N6)nc(OCC56CCCN5CCC6)nc4c3F)c12 [Example 193, 3-(8-(4-((1R,5S)-3,8-diazabicyclo[3.2.1]octan-3-yl)-8-fluoro-2-((tetrahydro-1H-pyrrolizin-7a(5H)-yl)methoxy)pyrido[4,3-d]pyrimidin-7-yl)naphthalen-1-yl)prop-2-yn-1-ol]	8.52
COC[C@H]1CC[C@@]2(COc3nc(N4CC5CCC(C4)N5)c4cnc(-c5cc(O)cc6ccccc56)c(F)c4n3)CCCN12 (stereo in doubt) [Example 389, 4-(4-((1R,5S)-3,8-diazabicyclo[3.2.1]octan-3-yl)-8-fluoro-2-((3-(methoxymethyl)tetrahydro-1H-pyrrolizin-7a(5H)-yl)methoxy)pyrido[4,3-d]pyrimidin-7-yl)naphthalen-2-ol]	0.781
CC(C)c1c(F)cc(O)cc1-c1ncc2c(N3C[C@H]4CC[C@@H](C3)N4)nc(OC[C@@]34CCCN3C[C@H](F)C4)nc2c1F [Example 290, 3-(4-((1R,5S)-3,8-diazabicyclo[3.2.1]octan-3-yl)-8-fluoro-2-(((2R,7aS)-2-fluorotetrahydro-1H-pyrrolizin-7a(5H)-yl)methoxy)pyrido[4,3-d]pyrimidin-7-yl)-5-fluoro-4-isopropylphenol]	0.111
CN1CCC[C@H]1COc1nc(N2CC3CCC(C=O)(C2)N3)c2cnc(-c3cc(O)cc4ccccc34)c(F)c2n1 (stereo partly drawn) [Example 214, 3-(8-fluoro-7-(3-hydroxynaphthalen-1-yl)-2-(((S)-1-methylpyrrolidin-2-yl)methoxy)pyrido[4,3-d]pyrimidin-4-yl)-3,8-diazabicyclo[3.2.1]octane-1-carbaldehyde]	> 16.7
CN(C)C1(C)CN(c2nc(N3C[C@H]4CC[C@@H](C3)N4)c3cnc(-c4cccc5cccc(Cl)c45)c(F)c3n2)C1 [Example 127, 1-(4-((1R,5S)-3,8-diazabicyclo[3.2.1]octan-3-yl)-7-(8-chloronaphthalen-1-yl)-8-fluoropyrido[4,3-d]pyrimidin-2-yl)-N,N,3-trimethylazetidin-3-amine]	> 16.7
Fc1c(-c2ccccc2OC(F)(F)F)ncc2c(N3C[C@H]4CC[C@@H](C3)N4)nc(OCC34CCCN3CCC4)nc12 [Example 229, 4-((1R,5S)-3,8-diazabicyclo[3.2.1]octan-3-yl)-8-fluoro-2-((tetrahydro-1H-pyrrolizin-7a(5H)-yl)methoxy)-7-(2-(trifluoromethoxy)phenyl)pyrido[4,3-d]pyrimidine bis-hydrochloride]	11.3
Oc1ccc(CC(F)(F)F)c(-c2ncc3c(N4C[C@H]5CC[C@@H](C4)N5)nc(OC[C@@]45CCCN4C[C@H](F)C5)nc3c2F)c1 [Example 424, 3-(4-((1R,5S)-3,8-diazabicyclo[3.2.1]octan-3-yl)-8-fluoro-2-(((2R,7aS)-2-fluorohexahydro-1H-pyrrolizin-7a-yl)methoxy)pyrido[4,3-d]pyrimidin-7-yl)-4-(2,2,2-trifluoroethyl)phenol]	0.681
Cc1ccc(O)cc1-c1ncc2c(N3C[C@H]4CC[C@@H](C3)N4)nc(OCC34CCCN3CCC4)nc2c1F [Example 256, 3-(4-((1R,5S)-3,8-diazabicyclo[3.2.1]octan-3-yl)-8-fluoro-2-((hexahydro-1H-pyrrolizin-7a-yl)methoxy)pyrido[4,3-d]pyrimidin-7-yl)-4-methylphenol]	> 16.7
CCc1cccc2cc(O)cc(-c3ncc4c(N5C[C@H]6CC[C@@H](C5)N6)nc(OC[C@@]56CCCN5C[C@H](F)C6)nc4c3F)c12 [Example 259, 4-(4-((1R,5S)-3,8-diazabicyclo[3.2.1]octan-3-yl)-8-fluoro-2-(((2R,7aS)-2-fluorotetrahydro-1H-pyrrolizin-7a(5H)-yl)methoxy)pyrido[4,3-d]pyrimidin-7-yl)-5-ethylnaphthalen-2-ol]	0.0039
Oc1cc(-c2ncc3c(N4C[C@H]5CC[C@@H](C4)N5)nc(OC[C@@H]4CCCN4Cc4ccccc4)nc3c2F)c2ccccc2c1 [Example 12, 4-(2-(((S)-1-benzylpyrrolidin-2-yl)methoxy)-4-((1R,5S)-3,8-diazabicyclo[3.2.1]octan-3-yl)-8-fluoropyrido[4,3-d]pyrimidin-7-yl)naphthalen-2-ol]	4.91
Cc1cc2[nH]ccc2c(-c2ncc3c(N4C[C@H]5CC[C@@H](C4)N5)nc(OCC45CCCN4CCC5)nc3c2F)c1C [Example 250, 4-((1R,5S)-3,8-diazabicyclo[3.2.1]octan-3-yl)-7-(5,6-dimethyl-1H-indol-4-yl)-8-fluoro-2-((hexahydro-1H-pyrrolizin-7a-yl)methoxy)pyrido[4,3-d]pyrimidine]	7.48
CN(C)Cc1ccc(COCCNC(=O)O[C@@H]2C[C@@H](COc3nc(N4C[C@H]5CC[C@@H](C4)N5)c4cnc(-c5cccc6cccc(Cl)c56)c(F)c4n3)N(C)C2)cc1 [Example 308, (3R,5S)-5-(((4-((1R,5S)-3,8-diazabicyclo[3.2.1]octan-3-yl)-7-(8-chloronaphthalen-1-yl)-8-fluoropyrido[4,3-d]pyrimidin-2-yl)oxy)methyl)-1-methylpyrrolidin-3-yl (2-((4-((dimethylamino)methyl)benzyl)oxy)ethyl)carbamate]	> 5.56
Fc1ccc2cccc(-c3ncc4c(N5C[C@H]6CC[C@@H](C5)N6)nc(OCC56CCCN5CCC6)nc4c3F)c2c1Cl [Example 98, 4-((1R,5S)-3,8-diazabicyclo[3.2.1]octan-3-yl)-7-(8-chloro-7-fluoronaphthalen-1-yl)-8-fluoro-2-((tetrahydro-1H-pyrrolizin-7a(5H)-yl)methoxy)pyrido[4,3-d]pyrimidine bis(2,2,2-trifluoroacetate)]	0.389
CN1CCC[C@H]1COc1nc(N2C[C@H]3CC[C@@H](C2)N3)c2cnc(-c3cc(O)cc4ccccc34)c(Cl)c2n1 [Example 191, 4-(4-((1R,5S)-3,8-diazabicyclo[3.2.1]octan-3-yl)-8-chloro-2-(((S)-1-methylpyrrolidin-2-yl)methoxy)pyrido[4,3-d]pyrimidin-7-yl)naphthalen-2-ol]	5.05
CCc1ccc(O)cc1-c1ncc2c(N3C[C@H]4CC[C@@H](C3)N4)nc(OCC34CCCN3CCC4)nc2c1F [Example 263, 3-(4-((1R,5S)-3,8-diazabicyclo[3.2.1]octan-3-yl)-8-fluoro-2-((hexahydro-1H-pyrrolizin-7a-yl)methoxy)pyrido[4,3-d]pyrimidin-7-yl)-4-ethylphenol]	7.64
Oc1cc(-c2ncc3c(N4C[C@H]5CC[C@@H](C4)N5)nc(OCC45CCCN4CCC5)nc3c2F)c2c(Cl)c(F)ccc2c1 [Example 245, 4-(4-((1R,5S)-3,8-diazabicyclo[3.2.1]octan-3-yl)-8-fluoro-2-((hexahydro-1H-pyrrolizin-7a-yl)methoxy)pyrido[4,3-d]pyrimidin-7-yl)-5-chloro-6-fluoronaphthalen-2-ol]	0.0234
CC1(N)CN(c2nc(N3C[C@H]4CC[C@@H](C3)N4)c3cnc(-c4cc(O)cc5ccccc45)c(F)c3n2)C1 [Example 124, 4-(2-(3-amino-3-methylazetidin-1-yl)-4-((1R,5S)-3,8-diazabicyclo[3.2.1]octan-3-yl)-8-fluoropyrido[4,3-d]pyrimidin-7-yl)naphthalen-2-ol]	11.1
Oc1cc(-c2ncc3c(N4C[C@H]5CC[C@@H](C4)N5)nc(OCCc4ccc(F)cn4)nc3c2F)c2ccccc2c1 [Example 102, 4-(4-((1R,5S)-3,8-diazabicyclo[3.2.1]octan-3-yl)-8-fluoro-2-(2-(5-fluoropyridin-2-yl)ethoxy)pyrido[4,3-d]pyrimidin-7-yl)naphthalen-2-ol]	7.96
Oc1cc(-c2ncc3c(N4C[C@H]5CC[C@@H](C4)N5)ncnc3c2F)c2ccccc2c1 [Example 181, 4-(4-((1R,5S)-3,8-diazabicyclo[3.2.1]octan-3-yl)-8-fluoropyrido[4,3-d]pyrimidin-7-yl)naphthalen-2-ol]	12.8
Cc1ccc2cccc(-c3ncc4c(N5C[C@H]6CC[C@@H](C5)N6)nc(OC[C@@H]5CCCN5C)nc4c3F)c2c1 [Example 321, 4-((1R,5S)-3,8-diazabicyclo[3.2.1]octan-3-yl)-8-fluoro-7-(7-methylnaphthalen-1-yl)-2-(((S)-1-methylpyrrolidin-2-yl)methoxy)pyrido[4,3-d]pyrimidine]	> 16.7
